We go through one compound from patent US5126258A (priority 1988, dated 1992).

Data set [1] has as its system 21G2. Put plainly: Hydrolysis of reactant ligands by receptor 21G2. Format: biochemical, mouse. The note with it: pH 8.0; receptor/ligand uM, time h: 17 1/10, 2; 18 2/10, 24; 20 2/10, 0.33; 5 1/5, 0.33; 22 5/10, 3.5; preliminary. How it is done:
(§1) ^1 Preliminary initial hydrolyses shown as the percentage of admixed
(§2) reactant ligand consumed for catalyzed and spontaneous hydrolyses. "--" =
(§3) No hydrolysis observed. "NT" = Not tried. All reactions were carried out
(§4) at pH 8.0 in a 50 mM phosphate buffer unless otherwise noted. Hydrolytic
(§5) percentages were determined by HPLC using a Hitachi model 655A12 liquid
(§6) chromatograph with a C18 Vydac 201TP54 column, except as noted below.
(§7) Mixtures of acetonitrile a nd water containing 0.1 percent trichloroaceti
(§8) acid [28:72-50:50 (v/v)] were used as elutant. Hydrolyses of Compounds 5
(§9) and 20 were assayed using fluorescence data.
(§10) ^2 Concentrations of receptor molecules (Rec.) and reactant ligands
(§11) (Lig.) in micromolar units, presuming a molecular weight of 150,000
(§12) daltons for each receptor molecule.
(§13) ^3 Reactant ligand (Lig.) used as substrate.
(§14) ^4 Time in hours that the reaction was permitted to take place.
(§15) ^5 Spontaneous hydrolytic percentages for the time period indicated.
(§16) ^6 Reaction carried out at pH 7.2 in a 50 mM phosphate buffer.

Data set [2] is described as follows: Spontaneous (uncatalyzed, background) hydrolysis. Format: physicochemical. The note with it: pH 8.0, 50 mM phosphate; time (h): 17 2; 18 24; 20 0.33; 5 0.33; 22 3.5. The protocol: The practical range of pH for the assay is limited by the rapid spontaneous rate of hydrolysis of an ester Compound 5 above pH 8.0. Initially, the ester was used at a concentration that was about four-fold greater than that of the protein, and the mixture was incubated at pH 7.2 for 10 minutes. Any change in fluorescence above background was noted.
The lack of spectroscopic distinction between such esters and their hydrolysis products recommended a chromatographic analysis of the process. Referring to FIG. 3, a mixture of Compound 7 (5 uM) and the monoclonal antibody from hybridoma P3 6D4 (0.1 uM) in phosphate buffer (50 mM, pH 8.0) was analyzed over time by high performance liquid chromatography (HPLC). The accelerated hydrolysis of the ester was apparent from the decrease of its peak and the concurrent increase in two new peaks that correspond with the expected products. Under these conditions, the ester is completely consumed in 60-80 minutes during which time the background rate accounts for about 12 to 16 percent hydrolysis. The chromatographic profile is the same as that produced by treatment with hog liver esterase.
^c The rate constants were determined spectrophotometrically (at 245
nm) by measuring initial rates at five concentrations of ester.
as §1, §2, §3, §4, §5, §6, §7, §8, §9, §15
(§17) Reaction kinetics were studied using three reactant ligands as substrates for monoclonal receptors 37G2 and 22F5. Data from initial rates were consistent with Michaelis-Menten reaction mechanism for a usual enzyme-substrate system. Initial rates were followed using at 271 nm using a U.V.-visible spectorphotometer for Compound 17, and a fluorescence spectrometer for Compounds 5 and 20, using an excitation wavelength of 355 nm and an emission wavelength of 455 nm for both compounds.

Data set [3] concerns 17G8. Briefly: Hydrolysis of reactant ligands by receptor 17G8. Format: biochemical, mouse. As to conditions: pH 8.0; receptor/ligand uM, time h: 18 2/10, 24; 20 2/10, 0.33; 5 1/5, 0.33; 22 5/10, 3.5; preliminary. How it is done: as §1, §2, §3, §4, §5, §6, §7, §8, §9, §10, §11, §12, §13, §14, §15, §16
Data set [4] concerns 13E10. Put plainly: Hydrolysis of reactant ligands by receptor 13E10. The note with it: pH 8.0; receptor/ligand uM, time h: 17 1/10, 2; 18 2/10, 24; 20 2/10, 0.33; 5 1/5, 0.33; 22 5/10, 3.5; preliminary. Format: biochemical, mouse. How it is done:
as §1, §2, §3, §4, §5, §6, §7, §8, §9, §10, §11, §12, §13, §14, §15, §16

Data set [5] relates to 37G2. Put plainly: Hydrolysis of reactant ligands by receptor 37G2. The note with it: pH 8.0; receptor/ligand uM, time h: 17 1/10, 2; 18 2/10, 24; 20 2/10, 0.33; 5 1/5, 0.33; 22 5/10, 3.5; preliminary. Format: biochemical, mouse. How it is done: as §1, §2, §3, §4, §5, §6, §7, §8, §9, §10, §11, §12, §13, §14, §15, §16
For data set [6], the system named is 1209. Put plainly: Hydrolysis of reactant ligands by receptor 12C9 (column head prints 1209). Format: biochemical, mouse. The note with it: pH 8.0; receptor/ligand uM, time h: 17 1/10, 2; 18 2/10, 24; 20 2/10, 0.33; 5 1/5, 0.33; 22 5/10, 3.5; preliminary. The protocol: as §1, §2, §3, §4, §5, §6, §7, §8, §9, §10, §11, §12, §13, §14, §15, §16
The test system of data set [7] is 7E5. Put plainly: Hydrolysis of reactant ligands by receptor 7E5. The data set is classed as biochemical, mouse. The note with it: pH 8.0; receptor/ligand uM, time h: 17 1/10, 2; 18 2/10, 24; 20 2/10, 0.33; 5 1/5, 0.33; 22 5/10, 3.5; preliminary. How it is done: as §1, §2, §3, §4, §5, §6, §7, §8, §9, §10, §11, §12, §13, §14, §15, §16
Data set [8] concerns Monoclonal Receptor 22F5. Briefly: Kinetics of hydrolysis by receptor 22F5. The data set is classed as biochemical, mouse.
From the text: as §17
Lineweaver-Burke plots for the catalyzed hydrolysis of Compounds 17, 5 and 20 obtained in the presence and absence of Compound 12i as inhibitor were prepared as discussed for FIG. 4. In particular, Compound 17 was present at concentrations of 1-16 uM with inhibitor concentrations of 100 and 300 nanomolar (nM). Compound 5 was present at concentrations of 1-10 uM with inhibitor concentrations of 100 and 200 nM. Compound 20 was present at concentrations of 2-20 uM with inhibitor concentrations of 25 and 100 nM.
*Fluorescence assays using Compounds 20 and 5 were carried out in a
PerkinElmer fluorescence spectrophotometer (moded LS5; Oakbrook, IL) usin
200 nanomolar receptor (based on a molecular weight of 150,000 daltons) i
50 mM phosphate buffer at a pH value of 8.0. The reactant ligand was
dissolved in dioxane and admixed in the amounts discussed above. Two
milliliters of reaction solution were utilized as was a dioxane
concentration of 2 percent by volume. […]

In data set [9] the test system is 44A2. Put plainly: Hydrolysis of reactant ligands by receptor 44A2. Format: biochemical, mouse. As to conditions: pH 8.0; receptor/ligand uM, time h: 17 1/10, 2; 18 2/10, 24; 20 2/10, 0.33; 5 1/5, 0.33; 22 5/10, 3.5; preliminary. The protocol:
as §1, §2, §3, §4, §5, §6, §7, §8, §9, §10, §11, §12, §13, §14, §15, §16

The subject of data set [10] is 22F5. Put plainly: Hydrolysis of reactant ligands by receptor 22F5. The note with it: pH 8.0; receptor/ligand uM, time h: 17 1/10, 2; 18 2/10, 24; 20 2/10, 0.33; 5 1/5, 0.33; 22 5/10, 3.5; preliminary. The data set is classed as biochemical, mouse. The protocol:
as §1, §2, §3, §4, §5, §6, §7, §8, §9, §10, §11, §12, §13, §14, §15, §16

Data set [11] concerns eight monoclonal receptors 21G2, 7E5, 37G2, 13E10, 12C9, 44A2, 17G8 and 22F5. Briefly: Catalyzed hydrolysis of reactant ligands by the eight QPN1 monoclonal receptors, summary. The data set is classed as biochemical, mouse. The note with it: pH 8.0. The protocol: Mice were hyperimmunized with the Compound 13-KLH conjugate over a three to four week time period. Sera were assayed in an ELISA using a Compound 13-BSA conjugate bound to microtiter plate wells as the solid-phase antigen. Cloned hybridomas were also screened using that ELISA assay.
Each of those catalyses could be inhibited by an appropriate analog-ligand. Thus, a relatively high percentage of induced monoclonal receptors was capable of catalyzing an esterolytic reaction. The reason for this relatively high percentage of useful receptors being induced is unknown, but could be due to the presence of phosphonamidate group nitrogen atom, as compared to a phosphonate oxygen atom, or to the quinoline nucleus of the analog-ligand. Those eight catalytic monoclonal receptors and the hybridomas that secrete them are identified by the laboratory designations "QPN1 7E5", "QPN1 12C9", "QPN1 13E10", "QPN1 17G8", "QPN1 21G2", "QPN1 22F5", "QPN1 37G2" and QPN1 44A2. The prefix "QPNI" is sometimes omitted herein when discussing these hybridomas and receptors.
Amide cleavage for Compounds 14 and 15 was assayed by analyzing for the production of free aminoquinaldine or aminonaphthalene by measuring the increase in the azo dye that results from derivatizing the free aminoquinaldine or aminonapthalene with a diazotization reagent.
Catalysis reactions were conducted by preparing a reaction admixture of 100 microliters (ul) total volume containing 5 micromolar (uM) monoclonal antibody, 50-75 uM amide reactant ligand substrate and a buffer described hereinafter. The buffer included in the above admixture varied depending upon the pH utilized as follows: pH 5, 10 […] sodium acetate, 10 mM sodium chloride; pH 7.2, 10 mM sodium phosphate, 0.15 molar (M) sodium chloride; pH 8.0; 50 mM sodium phosphate. The amide-containing substrates screened in this assay were added to the above admixture in 1 ul of a 100-fold concentrated stock solution of dimethyl formamide (DMF). Monoclonal antibody was added to the above admixture from a concentrated stock solution. The resulting admixture was placed into the well of a 96 well flat bottom microtiter plate (Costar, Cambridge, Mass.) and maintained in a moist vapor environment chamber at 23 degrees C. The production of aminoquinaldine or aminonaphthalene was then assayed as described below after 2,3,5, or 6 days.
The aminoquinaldine or aminonapthalene product produced by the catalyzed reaction was measured by first admixing 20 ul of 5M HCl, 80 ul acetone and 10 ul 0.5% (w/v) sodium nitrite to the reaction admixture to form a second admixture and maintaining that second admixture for 3 minutes at room temperature. Thereafter, 10 ul 2.5% (w/v) ammonium sulfamate was added to form a third admixture that was maintained for 2 minutes at room temperature. A still further 10 ul of 0.5% (w/v) N-(1-napthyl)ethylenediamine dihydrochloride was added to form a fourth admixture that was then maintained for 15 minutes at room temperature. Thereafter the resulting azo dye present in the fourth admixture was measured by absorbance spectroscopy at 540 nanometers (nm) for aminoquinaldine using a Model EL 309 Automated Microplate Reader (Bio-Tek Instruments, Winooski, Vt.).

The term Km denotes the substrate concentration at which the rate is half of its maximum. What is called kcat is the maximal rate divided by the concentration of active sites. As usually defined, the Vmax is the top rate of the reaction or transport when substrate is in excess. On to `CC(=O)Nc1ccc(CC(=O)Oc2ccc3c(C)cc(=O)oc3c2)cc1` [Compound 20], for which the “hydrolysis by 21G2” value in data set [1] was 36 percentage of reactant ligand. Moreover, in data set [2], the “Spon. (spontaneous hydrolysis)” value is 14 percentage of reactant ligand. Besides, the “hydrolysis by 17G8” value in data set [3] is recorded as 20 percentage of reactant ligand. Moreover, in data set [4], the “hydrolysis by 13E10” value is listed as 16 percentage of reactant ligand. Moreover, in data set [5], the “hydrolysis by 37G2” value is listed as 39 percentage of reactant ligand. Besides, the “hydrolysis by 1209” value in data set [6] is 16 percentage of reactant ligand. The “hydrolysis by 7E5” value in data set [7] is on record as 15 percentage of reactant ligand. Also, in data set [8] (50 mM phosphate pH 8.0, 200 nM receptor, 2% dioxane, figure = Km × 10^6), the Km stood at 5 µM. Further, in [8] (pH 8.0), the kcat came out at 0.023 s⁻¹. In addition, the Vmax in data set [8] (pH 8.0, 200 nM receptor, figure = Vmax × 10^9) was found to be 0.27 µM/min. The “hydrolysis by 44A2” value in data set [9] was 33 percentage of reactant ligand. Besides, in data set [10], the “hydrolysis by 22F5” value is on record as 48 percentage of reactant ligand. Besides, in data set [11], the “receptors (of eight) that catalyzed hydrolysis of the compound” value is reported as “Only those same five receptors”.
